These are literature values, as cited in patent US4847261A, “Alkoxy cycloalkanol esters of dihydrolysergic acid having peripheral serotonin antagonists properties” (Eli Lilly and Company, priority 1988, dated 1989).

Series [1] has as its system 5HT2 receptors. The note with it: in words; mediated by 5HT2 receptors; cited from earlier work.
Series [2] deals with 5HT2 receptors. The note with it: in words; cited from earlier work.

As to `CC(O)C(C)OC(=O)[C@@H]1C[C@@H]2c3cccc4c3c(cn4C(C)C)C[C@H]2N(C)C1` (stereo partly drawn) [LY53857, 1-isopropyl-6-methyl-8β-(1-methyl-2-hydroxy)propoxycarbonyl-5R-ergoline], the “antagonism of vascular contraction to serotonin” value in the series with 5HT2 receptors [1] is “potent antagonist”. For the same compound, in the series on 5HT2 receptors [2], the “peripheral serotonin antagonist activity among Garbrecht compounds” value is “most active peripheral serotonin antagonist”.
